Source: patent publication US6506901B2, “Substituted 2-(S)-hydroxy-3-(piperidin-4-yl-methylamino)-propyl ethers and substituted 2-aryl-2-(R)-hydroxy-1-(piperidin-4-yl-methyl)-ethylamine β-3 adrenergic receptor agonists” (Wyeth, priority 2000, dated 2003)
pEC50: −log10 of the molar value.

Target: T1, human β3 receptors (Homo sapiens, UniProt P13945)
T1 construct: Full length β3 AR clones (402 amino acids) containing the last 6 amino acids of hβ3—AR; expressed in transfected cells; host or cells: CHO cells
Test: cAMP response (SPA) in CHO cells expressing cloned human β3 adrenergic receptor
Type: cell-based
Conditions: for pEC50: CHO cells expressing human β3 receptor, cAMP, 30 min incubation, 10^−9 M to 10^−5 M; for IA(β3): maximal response compared to the maximal response of isoproterenol at 10^−5 M
Procedure: Binding to the receptors was measured in Chinese Hamster ovary (CHO) cells that were transfected with adrenergic receptors.
Cloning of Human β3-AR Genomic DNA: cDNA was constructed by ligating four polymerase chain reaction (PCR) products using the following primers: an ATG-NarI fragment, sense primer 5′-[…]3′ and anti-sense primer 5′ […]3′; a NarI-AccI fragment, 5′ […]3′ as sense and 5′ […]3′ as anti-sense primer; an AccIi-StyI fragment, sense primer 5′ […]3′ and anti-sense primer 5′ […]3′ and a StyI-TAG fragment, with sense primer 5′ […]3′ and anti-sense primer 5′ […]3′. The corresponding primer sequences are described in Mantzoros, C. […] The four fragments are ligated into a pUC 18 plasmid (Gibco-BRL) and sequenced.
CHO cells were grown in 24-well tissue culture plates in Dulbecco's Modified Eagle Media with 10% fetal bovine serum, MEM non-essential amino acids, Penicillin-Streptompycin and Geneticin. […] Isoproterenol (10^−5 M) was used as an internal standard for comparison of activity. Cells were incubated at 37° C. on a rocker for 30 min with the β3 cells and 15 min for β1 and β2 cells. Incubation was stopped with the addition of 0.2N HCl and neutralized with 2.5N NaOH. The plates, containing the cells and neutralized media, were stored at −20 degrees celsius until ready to test for cAMP using the SPA test kit (Amersham).
Data Analysis and Results: Data collected from the SPA test procedure were analyzed as per cent of the maximal isoproterenol response at 10^−5 M. Activity curves were plotted using the SAS statistical and graphics software.

T1 sequence (P13945 whole entry): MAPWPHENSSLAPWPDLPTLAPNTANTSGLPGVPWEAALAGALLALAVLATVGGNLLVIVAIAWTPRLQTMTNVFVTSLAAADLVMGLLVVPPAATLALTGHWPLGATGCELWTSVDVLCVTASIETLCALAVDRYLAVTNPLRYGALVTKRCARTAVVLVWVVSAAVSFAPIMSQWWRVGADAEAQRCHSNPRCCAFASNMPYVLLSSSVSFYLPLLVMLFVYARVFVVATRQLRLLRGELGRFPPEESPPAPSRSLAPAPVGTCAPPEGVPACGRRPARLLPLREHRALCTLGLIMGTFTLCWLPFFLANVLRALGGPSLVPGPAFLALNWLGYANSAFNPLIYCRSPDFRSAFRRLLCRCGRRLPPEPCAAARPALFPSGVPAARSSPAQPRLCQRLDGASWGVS

pEC50 | IA(β3) | SMILES
7.60 | 1 | COC(=O)c1cccc2c1ccn2-c1ccc(S(=O)(=O)N2CCC(CNC[C@H](O)c3ccc(O)c(NS(C)(=O)=O)c3)CC2)cc1 [Example 98, 1-[4-(4-{[(2R)-2-Hydroxy-2-(4-hydroxy-3-methanesulfonylamino-phenyl)-ethyl-amino]-methyl}-piperidine-1-sulfonyl)-phenyl]-1H-indole-4-carboxylic Acid Methyl Ester]
7.39 | 1 | CCOC(=O)c1cnn(-c2ccc(S(=O)(=O)N3CCC(CNC[C@H](O)c4ccc(O)c(NS(C)(=O)=O)c4)CC3)cc2)c1 [Example 100, Ethyl 1-{4-[(4-{[((2R)-2-Hydroxy-2-{4-hydroxy-3-[(methylsulfonyl)amino]-phenyl}ethyl)amino]methyl}piperidin-1-yl)sulfonyl]phenyl}-1H-pyrazole-4-carboxylate]
7.37 | 0.93 | CS(=O)(=O)Nc1cc([C@@H](O)CNCC2CCN(S(=O)(=O)c3ccc(-n4cc(C(=O)O)cn4)cc3)CC2)ccc1O [Example 101, 1-{4-[(4-{[((2R)-2-Hydroxy-2-{4-hydroxy-3-[(methylsulfonyl)amino]-phenyl}ethyl)amino]methyl}piperidin-1-yl)sulfonyl]phenyl}-1H-pyrazole-4-carboxylic Acid]
8.10 | 1 | COC(=O)CCc1nc(-c2ccc(S(=O)(=O)N3CCC(CNC[C@H](O)c4ccc(O)c(NS(C)(=O)=O)c4)CC3)cc2)no1 [Example 104, 3-{3-[4-(4-{[(2R)-2-Hydroxy-2-(4-hydroxy-3-methanesulfonylamino-phenyl)-ethylamino]-methyl}-piperidine-1-sulfonyl)-phenyl]-[1,2,4]oxadiazol-5-yl}-propionic Acid Methyl Ester]
9.00 | 0.97 | CS(=O)(=O)Nc1cc([C@@H](O)CNCC2CCN(c3ccc(S(=O)(=O)N4CCCCC4)cc3)CC2)ccc1O [Example 106, (R)-N-{2-Hydroxy-5-[1-hydroxy-2-({1-[4-(piperidine-1-sulfonyl)-phenyl]-piperidin-4-ylmethyl}-amino)-ethyl]-phenyl}-methanesulfonamide]
8.00 | 1.2 | COC(=O)c1ccc(N2CCC(CNC[C@H](O)c3ccc(O)c(NS(C)(=O)=O)c3)CC2)nc1 [Example 107, Methyl 6-(4-{[((2R)-2-Hydroxy-2-{4-hydroxy-3-[(methylsulfonyl)amino]phenyl}-ethyl)amino]methyl}piperidin-1-yl)-nicotinate]
7.02 | 0.9 | COC(=O)[C@@H]1CCCN1C(=O)Nc1ccc(S(=O)(=O)N2CCC(CNC[C@H](O)c3ccc(O)c(NS(C)(=O)=O)c3)CC2)cc1 [Example 111, (2S)-1-({4-[(4-{[((2R)-2-Hydroxy-2-{4-hydroxy-3-[(methylsulfonyl)amino]-phenyl}ethyl)amino]methyl}piperidin-1-yl)sulfonyl]anilino}carbonyl)pyrrolidine-2-carboxylic Acid Methyl Ester]
8.00 | 1 | CC(C)C[C@H](NC(=O)c1ccc(N2CCC(CNC[C@H](O)c3ccc(O)c(NS(C)(=O)=O)c3)CC2)cc1)C(=O)O [Example 114, (2S)-2-{[4-(4-{[((2R)-2-Hydroxy-2-{4-hydroxy-3-[(methylsulfonyl)amino]phenyl}-ethyl)amino]methyl}piperidin-1-yl)benzoyl]amino}-4-methylpentanoic Acid]
7.26 | 1 | CC(C)c1ccc(S(=O)(=O)N2CCC(CNC[C@H](O)c3ccc(O)c(NS(C)(=O)=O)c3)CC2)cc1 [Example 124, N-(2-hydroxy-5-{(1R)-1-hydroxy-2-[({1-[(4-isopropylphenyl)-sulfonyl]piperidin-4-yl}methyl)amino]ethyl}phenyl)-methanesulfonamide]
7.38 | 0.76 | CS(=O)(=O)Nc1cc([C@@H](O)CNCC2CCN(S(=O)(=O)c3cccc4ccccc34)CC2)ccc1O [Example 153, N-{2-hydroxy-5-[(1R)-1-hydroxy-2-({[1-(1-naphthylsulfonyl)piperidin-4-yl]methyl}amino)ethyl)phenyl}methanesulfonamide]

The remaining lines, values behind:

SMILES | pEC50 | IA(β3)
CS(=O)(=O)Nc1cc([C@@H](O)CNCC2CCN(S(=O)(=O)c3ccc(NC(=O)NCc4ccc(OCC(=O)O)cc4F)cc3)CC2)ccc1O [Example 89, [3-Fluoro-4-[[[[[4-[[4-[[[(R)-2-hydroxy-2-[4-hydroxy-3-[(methylsulfonyl)amino]phenyl]-ethy]amino]-methyl]-1-piperidinyl]sulfonyl]phenyl]amino]carbonyl]-amino]-methyl]phenoxy]acetic Acid] | 7.46 | –
CCCCCCC(=O)Nc1ccc(S(=O)(=O)N2CCC(CNC[C@H](O)COc3ccc(O)cc3)CC2)cc1 [Example 90, Heptanoic Acid [4-(4-{[(2S)-2-Hydroxy-3-(4-hydroxy-phenoxy)-propylamino]-methyl}-piperidine-1-sulfonyl)-phenyl]-amide] | 6.57 | 0.91
O=C(NCc1c(F)cccc1F)c1ccc(S(=O)(=O)N2CCC(CNC[C@H](O)COc3ccc(O)cc3)CC2)cc1 [Example 91, N-(2,6-Difluoro-benzyl)-4-(4-{[(2S)-2-hydroxy-3-(4-hydroxy-phenoxy)-propylamino]-methyl}-piperidine-1-sulfonyl)-benzamide] | 6.96 | 0.72
O=C(Nc1ccc(S(=O)(=O)N2CCC(CNC[C@H](O)COc3ccc(O)cc3)CC2)cc1)c1n[nH]c2ccccc12 [Example 92, 1H-Indazole-3-carboxylic Acid [4-(4-{[(2S)-2-Hydroxy-3-(4-hydroxy-phenoxy)-propylamino]-methyl}-piperidine-1-sulfonyl)-phenyl]-amide] | 6.80 | 0.82
CN1CCN(c2ccc(S(=O)(=O)N3CCC(CNC[C@H](O)COc4ccc(O)cc4)CC3)cc2)C1=O [Example 94, 1-[4-(4-{[2-Hydroxy-3-(4-hydroxy-phenoxy)-propylamino]-methyl}-piperidine-1-sulfonyl)-phenyl]-3-methyl-imidazolidin-2-one] | 6.29 | 0.76
CCOC(=O)c1cc2ccccc2n1-c1ccc(S(=O)(=O)N2CCC(CNC[C@H](O)c3ccc(O)c(NS(C)(=O)=O)c3)CC2)cc1 [Example 95, 1-[4-(4-{[(2R)-2-Hydroxy-2-(4-hydroxy-3-methanesulfonylamino-phenyl)-ethyl-amino]-methyl}-piperidine-1-sulfonyl)-phenyl]-1H-indole-2-carboxalic Acid Ethyl Ester] | 6.90 | 0.82
CCOC(=O)Cc1cn(-c2ccc(S(=O)(=O)N3CCC(CNC[C@H](O)c4ccc(O)c(NS(C)(=O)=O)c4)CC3)cc2)c2ccccc12 [Example 96, {1-[4-(4-{[(2R)-2-Hydroxy-2-(4-hydroxy-3-methanesulfonylamino-phenyl)-ethylamino]-methyl}-piperidine-1-sulfonyl)-phenyl]-1H-indol-3-yl}-acetic Acid Ethyl Ester] | 7.89 | 0.85
CS(=O)(=O)Nc1cc([C@@H](O)CNCC2CCN(S(=O)(=O)c3ccc(-n4cc(CC(=O)O)c5ccccc54)cc3)CC2)ccc1O [Example 97, {1-[4-(4-{[(2R)-2-Hydroxy-2-(4-hydroxy-3-methanesulfonylamino-phenyl)-ethylamino]-methyl}-piperidine-1-sulfonyl)-phenyl]-1H-indol-3-yl}-acetic Acid] | 7.96 | 0.96
CS(=O)(=O)Nc1cc([C@@H](O)CNCC2CCN(S(=O)(=O)c3ccc(-n4ccc5c(C(=O)O)cccc54)cc3)CC2)ccc1O [Example 99, 1-[4-(4-{[(2R)-2-Hydroxy-2-(4-hydroxy-3-methanesulfonylamino-phenyl)-ethylamino]-methyl}-piperidine-1-sulfonyl)-phenyl]-1H-indole-4-carboxylic Acid] | 8.05 | 1
CS(=O)(=O)Nc1cc([C@@H](O)CNCC2CCN(S(=O)(=O)c3ccc(NC(=O)N4CCC[C@H]4C(=O)O)cc3)CC2)ccc1O [Example 112, (2S)-1-({4-[(4-{[((2R)-2-Hydroxy-2-{4-hydroxy-3-[(methylsulfonyl)amino]phenyl}-ethyl)amino]methyl}piperidin-1-yl)sulfonyl]anilino}carbonyl)pyrrolidine-2-carboxylic Acid] | 6.88 | 0.93
Cc1c(C)c(C)c(S(=O)(=O)N2CCC(CNC[C@H](O)c3ccc(O)c(NS(C)(=O)=O)c3)CC2)c(C)c1C [Example 143, N-(2-hydroxy-5-{(1R)-1-hydroxy-2-[({1-[(2,3,4,5,6-pentamethylphenyl)suIfonyl]piperidin-4-yl}methyl)amino]ethyl}phenyl)methanesulfonamide] | 6.09 | 1.34
